“Also recorded” adds a separate entry of the source.
Experiments:
NMDA receptor [1] = assay: NMDA-induced striatal dopamine release, in vivo microdialysis; set-up: species or system rat
Description: In vivo Microdialysis. Prior to surgery the animals were anesthetized with sodium pentobarbital (50 mg/kg, i.p) and placed in a stereotaxic apparatus (David Kopf Instruments). A rostro-caudal incision was then made to expose the dorsal surface of the skull. A hole was drilled in the skull above the striatum with a stereotaxic drill (+0.5 mm A/P and +2.9 mm M/L relative to bregma, (Paxinos and Watson, 1997). Two other holes were drilled in the skull where screws were secured. A dialysis guide cannula (CMA Microdialysis; Acton, Mass.) was lowered 3 mm ventrally and was then secured to the skull with dental cement. All rats were housed in individual cages following surgery.
No less than two days after surgery, the rats were briefly anesthetized with isoflurane to facilitate the removal of the dummy from the guide cannula and insertion of a microdialysis probe (CMA 10, dialysis membrane length of 2 mm of polycarbonate, with a molecular weight cut off of 20 kD) into the striatum. Animals were allowed to recover for 15 min prior to the initiation of the experiment following probe insertion. Artificial cerebrospinal fluid (aCSF) was pumped through the dialysis probe at a rate of 2 μl/min. Twelve 20 min samples were collected over 240 min and immediately stored at −20° C. The first six 20 min samples were collected to establish the baseline concentration of dopamine. […] At this point the perfusate for the DMSO group was changed from aCSF to one of the following solutions: NMDA (1 mM) or NMDA (1 mM) plus D-AP5 (100-200 μM). The perfusate for the steroid group was switched from aCSF to NMDA (1 mM). After collection of sample 7, the perfusate was switched back to aCSF and 5 more 20 min samples were collected. Upon termination of the experiment, samples were stored at −80° C. until analysis.
All samples were analyzed using high pressure liquid chromatography (HPLC) with electrochemical detection (ESA; Chelmsford, Mass.). The mobile phase consisted of 50 mM Na2HPO4, 20 mM citric acid, 1.5 mM heptanosulfonic acid, 0.1 mM EDTA, and 5% methanol at pH 4.0. The dopamine was separated on a 15 cm reverse phase C-18 column (Alltech; Deerfield, Ill.) and oxidized at a potential of 175 mV. Dopamine concentrations per sample were normalized to an external standard curve and plotted as percentage change from baseline.

mice = assay: Tail flick test (latency to remove the tail from the light source); format: in vivo; conditions: for dose dependence of tail flick latency: mice, 5, 10 or 15 mg/kg i.p., tested every 10 min for 120 min
Description: FIG. 9. […] Following the injection the mice were tested for every 10 min for 120 min. The latency to remove the tail from the light source was used as a measure of analgesia. […] The values are mean+SEM for 10-15 mice for each group. Data were analyzed using a one-way ANOVA followed by Fisher's LSD.* Denotes significance compared to control.
FIG. 10. […] Mice were injected with PACME (5, 10 or 15 mg/kg). Following the injection the mice were tested for every 10 min for 120 min. The latency to remove the tail from the light source was used as a measure of analgesia. […] Data were analyzed using a one-way ANOVA followed by Fisher's LSD. The values are mean±SEM for 10-15 mice for each group.* Denotes significance compared to control.
The data were analyzed using a one-way ANOVA followed by Fisher's LSD.

NMDA receptors = conditions: in vitro studies, Park-Chung et al., 1994; cited from earlier work
rats = assay: Cocaine sensitization (horizontal activity after daily cocaine injections); format: in vivo, rat
Description: Cocaine Sensitization. Rats were habituated to the photocell apparatus (AccuScan Instruments; Columbus, Ohio) for two hours and administered saline (i.p.) one day prior to the start of the experiment. On the first day of the experiment, rats were rehabituated to the behavior boxes for one hour prior to the start of the experiment. […] Horizontal activity was measured for 2 hours after every cocaine injection. Saline-cocaine or 3α5βHS-cocaine were administered daily on 7 consecutive days.

NMDA receptor [2] = assay: Behavioral hyperactivity (horizontal activity) induced by intra-striatal microinjection of NMDA; format: in vivo, rat
Description: Microinjection Experiments. Rats were anesthetized with sodium pentobarbital (50 mg/kg, i.p.) and placed in a stereotaxic apparatus (David Kopf Instruments). A rostro-caudal incision was then made to expose the dorsal surface of the skull. Two bilateral holes were drilled above the striatum (+1.0 mm A/P, +3.0 mm M/L, −3.0 mm D/V relative to bregma, Paxinos and Watson, 1997) and guide cannulae (9 mm, 24 gauge) were implanted and fastened to the skull using screws and dental cement. All rats were housed in individual cages following surgery. Three days post surgery rats were habituated to the photocell apparatus (AccuScan Instruments; Columbus, Ohio) for two hours. On the day of the experiment rats were rehabituated for one hour prior to the start of the experiment. […] The animals were returned to the behavior boxes and activity was monitored continuously for 60 min.
Horizontal activity was measured in 5 min blocks for 60 min immediately following microinjection. The data were analyzed with a mixed factors analysis of variance (ANOVA) with repeated measures over time in FIG. 4A. […] The data in FIG. 4B represent the 10 min time point from FIG. 4A and was analyzed using a one-way ANOVA.

Molecule: NC(CCCP(=O)(O)O)C(=O)O [D-AP5]
- effect on NMDA-induced increase in extracellular striatal dopamine (NMDA receptor [1]; 100 μM or 200 μM co-perfused with 1 mM NMDA): inhibited; also recorded: attenuated in a dose-dependent manner

Molecule: CC(=O)[C@H]1CC[C@H]2[C@@H]3CC[C@@H]4C[C@H](O)CC[C@]4(C)[C@H]3CC[C@]12C [pregnanolone]
- effect on NMDA-induced increase in extracellular striatal dopamine (NMDA receptor [1]; 160 μg/kg i.p. (sub-sedative dose)): had no effect
- effect on NMDA-induced increase in extracellular striatal dopamine (NMDA receptor [1]; 160 μg/kg i.p. (sub-sedative dose), listed as Pregnanolone): no influence

Molecule: CC(=O)[C@H]1CC[C@H]2[C@@H]3CC[C@@H]4C[C@H](OCC(=O)O)CC[C@]4(C)[C@H]3CC[C@]12C [PACME, pregnanolone carboxy methyl ether]
- tail flick latency at 90 and 120 min (mice; PACME 10 mg/kg): increased the latency
- analgesia compared to control (pair-wise analysis) (mice; PACME 7 and 10 mg/kg, at 20, 30, 40, 60 min following injection): significant levels of analgesia
- lengthening of tail flick latency relative to cut-off time (mice; PACME, dose not stated, cut-off time 10 seconds): near maximal lengthening of the latency time
- dose dependence of tail flick latency (mice): increased the latency to remove the tail from the light source dose-dependently
- duration of analgesic effect compared with morphine (2 mg/kg, s.c.) (mice; tail flick, mice): longer lasting
- analgesia compared with morphine (mice; tail flick, mice, PACME vs morphine 2 mg/kg s.c.): analgesia similar to that of morphine

Molecule: CN1CC[C@]23c4c5ccc(O)c4O[C@H]2[C@@H](O)C=C[C@H]3[C@H]1C5 [morphine, reference compound]
- time of greatest analgesic effect following injection (mice; morphine 2 mg/kg s.c.): 20 min
- analgesia compared to control (pair-wise analysis) (mice; morphine 2 mg/kg s.c., from 20 min to 60 or 90 min following injection): significant levels of analgesia

Molecule: pregnanolone hemisuccinate [3α5βHS]
- action on NMDA receptors in vitro (NMDA receptors): inhibits NMDA receptors
- tail flick latency at 90 and 120 min (mice; 3α5βHS 15 mg/kg, compared to the other groups): effective in increasing the latency
- analgesia compared to control (pair-wise analysis) (mice; 10 and 15 mg/kg i.p., at 20, 30, 40, 60, 90 min): significant levels of analgesia
- dose dependence of tail flick latency (mice): dose-dependent increase in tail flick latency; also recorded: increased the latency to remove the tail from the light source dose-dependently
- duration of analgesic effect compared with morphine (2 mg/kg, s.c.) (mice; tail flick, mice): longer lasting
- effect on development of behavioral sensitization to cocaine (rats; 10 mg/kg i.p. 10 min prior to each of 7 daily cocaine injections (15 mg/kg i.p.)): inhibits the initiation of behavioral sensitization to cocaine; also recorded: inhibited the development of behavioral sensitization to cocaine
- effect on behavioral hyperactivity induced by saline administration or an acute cocaine injection (rats; highest dose used): had no effect
- sedation (saline+3α5βHS vs saline+vehicle horizontal activity) (NMDA receptor [2]; 10 mg/kg i.p., any time point): did not induce sedation
- effect on NMDA-induced behavioral activation (horizontal activity) (NMDA receptor [2]; 1 and 10 mg/kg i.p. 10 min prior to intra-striatal NMDA, 10 min time point): decrease in horizontal activity; also recorded: blocked
- effect on NMDA-induced increase in extracellular striatal dopamine (NMDA receptor [1]; 5, 10 and 20 mg/kg i.p., 20 and 40 min following NMDA perfusion): inhibits NMDA-induced dopamine release; also recorded: blocked
- EC50 for inhibition of NMDA-induced dopamine release (NMDA receptor [1]; i.p. injection, 1 mM NMDA perfusion, at 20 min): 4 mg/kg

— patent US20040082554A1, “Neuroactive steroid derivatives and method of use” (priority 2003, published 2004)
